Measurements: patent publication US7037656B2, “Methods and compositions for identifying ligands for nuclear receptors” (priority 2000, dated 2006)

Key:
Assay in all cases: Yeast 6x EcRE-lacZ β-galactosidase transactivation assay
[1] = target: T1, Dm ΔN EcR +Aa USPa-form + GRIP1 (Drosophila melanogaster, UniProt P34021); format: cell-based, Drosophila melanogaster; Aedes aegypti; conditions: RH 5992 10 μM, 4 hours, DMSO control 0.243
T1 construct: ubiquitin (human, 76 aa) (N, cleaved yes); expressed in transfected cells
Protocol: (§1) Briefly, yeast cells are cultured in 5 mL of YPD liquid medium overnight at 30° C. The cell culture was diluted 1:20 in YPD media and further grown until cell density reached an O.D of 0.6. at OD600. The cells were pelleted by centrifugation and washed with 10 mL of TE+0.1M lithium acetate. Cells are then resuspended in 10 mL TE+0.1M lithium acetate and incubated at 30° C. for 1 hour. Cells are collected and resuspended in 0.5 mL of TE+ 0.1M lithium acetate. Aliquots of cells (50 μL), were incubated for 15 minutes at 30° C. with 1–2 μg plasmid DNA in the presence of 5 μg of denatured salmon sperm DNA as DNA carrier. In the case of co-transformation, the indicated plasmids were added simultaneously. 50% polyethyleneglycol of molecular weight 4000, diluted in TE, was added to a final concentration of 35%. […]
(§2) Using the transformation method set forth above, yeast were co-transformed with a reporter gene as shown in FIG. 2 and the expression vector encoding the full-length D. melanogaster ecdysone receptor, DmEcR (FIG. 3A) in the presence or absence of the Dm EcR heterodimer partner, DmUSP (FIG. 4A). […] As the N-terminal portion of the Dm EcR receptor is reported to play a role in ligand independent transactivation, an expression vector containing an N-terminal deletion in the EcR was constructed (see FIG. 3B) and assessed in the β-galactosidase assays described above. […]

[2] = target: T2, Dm ΔN EcR +Aa USPb-form + GRIP1 (Drosophila melanogaster, UniProt P34021); format: cell-based, Drosophila melanogaster; Aedes aegypti; conditions: RH 5992 10 μM, 4 hours, DMSO control 0.251
T2 construct: ubiquitin (human, 76 aa) (N, cleaved yes); expressed in transfected cells
Protocol: as §1, §2

[3] = target: T3, Aa ΔA/B EcR + RXRα + GRIP1 (Aedes aegypti, UniProt P49880); format: cell-based, Aedes aegypti; human; conditions: RH 5992 10 μM, 4 hours, DMSO control 0.544
T3 construct: ubiquitin (human, 76 aa) (N, cleaved yes); expressed in transfected cells
Protocol: The human RXR α (Genbank accession number X52773), mouse RXR β (Genbank accession number X66224) or mouse RXR γ (Genebank accession number X66225) subtypes were expressed in yeast-E. coli multicopy 2μ expression plasmids under regulation of CUP1 promoter with the LEU2 selective marker (1).
Briefly, yeast cells are cultured in 5 mL of YPD liquid medium overnight at 30° C. The cell culture was diluted 1:20 in YPD media and further grown until cell density reached an O.D of 0.6. at OD600. The cells were pelleted by centrifugation and washed with 10 mL of TE+0.1M lithium acetate. Cells are then resuspended in 10 mL TE+0.1M lithium acetate and incubated at 30° C. for 1 hour. Cells are collected and resuspended in 0.5 mL of TE+ 0.1M lithium acetate. […]
Using the transformation method described above, yeast were co-transformed with a reporter gene as shown in FIG. 2 and the expression vector encoding the full-length Aedes aegypti ecdysone receptor, Aa EcR (FIG. 7A) in the presence or absence of the Aa EcR heterodimer partner, Aa USP (a or b form, FIGS. 8A and 8B respectively). […] As the N-terminal portion of the AaEcR receptor is reported to play a role in ligand independent transactivation, an expression vector containing an N-terminal deletion in the Aa EcR was constructed (see FIG. 7B) and assessed in the β-galactosidase assays described above. […]

T1 sequence (P34021 221-878, stated change not applied): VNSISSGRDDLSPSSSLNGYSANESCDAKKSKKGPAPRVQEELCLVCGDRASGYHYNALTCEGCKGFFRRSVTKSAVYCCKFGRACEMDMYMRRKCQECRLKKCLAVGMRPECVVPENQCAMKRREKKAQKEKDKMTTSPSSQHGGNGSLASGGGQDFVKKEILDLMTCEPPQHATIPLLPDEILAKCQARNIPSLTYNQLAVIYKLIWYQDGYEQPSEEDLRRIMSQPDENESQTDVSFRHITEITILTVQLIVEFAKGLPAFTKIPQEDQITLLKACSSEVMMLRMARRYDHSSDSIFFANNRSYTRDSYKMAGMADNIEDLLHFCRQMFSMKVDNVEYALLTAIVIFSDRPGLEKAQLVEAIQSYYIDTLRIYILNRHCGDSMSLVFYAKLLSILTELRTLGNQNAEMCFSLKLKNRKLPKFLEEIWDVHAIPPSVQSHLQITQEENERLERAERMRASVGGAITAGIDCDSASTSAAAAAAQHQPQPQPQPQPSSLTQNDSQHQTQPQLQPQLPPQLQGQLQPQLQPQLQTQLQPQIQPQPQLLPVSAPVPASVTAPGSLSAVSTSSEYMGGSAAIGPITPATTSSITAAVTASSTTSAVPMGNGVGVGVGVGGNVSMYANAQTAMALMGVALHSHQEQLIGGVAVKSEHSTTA
T2 sequence (P34021 221-878, stated change not applied): as above
T3 sequence (P49880 with tags, fused parts or gaps): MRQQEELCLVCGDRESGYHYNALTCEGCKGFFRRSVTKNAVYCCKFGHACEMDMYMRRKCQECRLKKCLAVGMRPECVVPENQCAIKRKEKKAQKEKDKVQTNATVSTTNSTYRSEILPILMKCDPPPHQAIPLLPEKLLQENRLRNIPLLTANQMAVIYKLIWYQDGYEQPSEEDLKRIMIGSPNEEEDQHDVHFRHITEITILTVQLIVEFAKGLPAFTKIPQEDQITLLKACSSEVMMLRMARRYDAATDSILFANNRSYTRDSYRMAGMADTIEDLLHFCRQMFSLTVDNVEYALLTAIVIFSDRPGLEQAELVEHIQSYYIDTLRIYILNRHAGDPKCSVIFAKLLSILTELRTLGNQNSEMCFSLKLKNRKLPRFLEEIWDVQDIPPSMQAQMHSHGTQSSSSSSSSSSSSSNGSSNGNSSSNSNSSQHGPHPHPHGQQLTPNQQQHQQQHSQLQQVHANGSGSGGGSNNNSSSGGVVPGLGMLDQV
T3 sequence (P19793 whole entry partner): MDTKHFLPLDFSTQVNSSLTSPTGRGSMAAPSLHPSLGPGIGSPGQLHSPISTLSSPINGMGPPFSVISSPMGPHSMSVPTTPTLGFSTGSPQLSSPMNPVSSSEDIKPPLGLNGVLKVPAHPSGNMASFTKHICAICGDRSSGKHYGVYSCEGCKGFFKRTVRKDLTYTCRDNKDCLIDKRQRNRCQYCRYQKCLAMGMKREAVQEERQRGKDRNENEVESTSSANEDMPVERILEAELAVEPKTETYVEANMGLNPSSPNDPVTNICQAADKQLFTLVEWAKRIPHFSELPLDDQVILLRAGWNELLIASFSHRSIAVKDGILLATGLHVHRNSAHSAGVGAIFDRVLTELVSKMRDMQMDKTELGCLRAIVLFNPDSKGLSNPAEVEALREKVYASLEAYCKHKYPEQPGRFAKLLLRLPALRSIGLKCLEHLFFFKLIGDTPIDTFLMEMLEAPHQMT

Compound CCc1ccc(C(=O)NN(C(=O)c2cc(C)cc(C)c2)C(C)(C)C)cc1 [RH 5992, tebufenozide] has a β-galactosidase activity [1] of 1.860, a β-galactosidase activity [2] of 2.068 and a β-galactosidase activity [3] of 2.032.
